This is an account of results in patent US20230372361A1, “USE OF OXYGENATED CHOLESTEROL SULFATES FOR TREATING INFLAMMATORY CONDITIONS” (Durect Corporation, priority 2020, published 2023).

SMILES strings stand for the structures.

Series [1] concerns Huh-7 cells. Kind of series: Whole genome bisulfite sequencing (WGBS), promoter 5mCpG demethylation. Type of series: cell-based, human. Particulars: 25 μM, 4 hours. Here is the method: Huh-7 and HepG-2 cells were cultured in DMEM media supplemented with 10% heat-inactivated fetal bovine serum (FBS), high glucose (HG, 4.5 g/L) at 37° C. in a humidified atmosphere of 5% CO2.
Each sample, 2 was sent to EpigenDx, Inc. (Hopkinton, MA) for analysis of global methylation bisulfite sequencing. The same samples, 6 μg, were sent to Novogene Co., Ltd (Tianjin, China) for analysis of whole genome bisulfite sequencing (WGBS). Total RNA was isolated using the Promega SV total RNA isolation system (Madison, WI) with DNase treatment. Each sample, 2 was used for the first-strand cDNA synthesis as recommended by the manufacturer (Invitrogen, Carlsbad, CA). […] Relative messenger RNA (mRNA) expression was quantified with the comparative cycle threshold (Ct) method using the primer set shown in Table 1.1 and was expressed as 2^−ΔΔct.
Analysis of Whole Human Genome Bisulfite Sequencing (WGBS) Each sample, 5.2 μg of genomic DNA spiked with 26 ng lambda DNA, was fragmented by sonication to 200-300 bp with Covaris S220, followed by end repair and adenylation. […] These DNA fragments were treated twice with bisulfite using EZ DNA Methylation-Gold™ Kit (Zymo Research) before the resulting single-strand DNA fragments were PCR amplified using KAPA HiFi Hot Start Uracil and Ready Mix (2×). […]

A short description of series [2]: Metabolite profiling of plasma, urine, feces after intravenous dose (HPLC radiodetection, MS). In kind it is in vivo, rats. The following applies: iv 10 mg/kg. As for the experimental part:
Plasma pools were made from Group 1 rats at the 0.083, 0.25, 0.5, and 1-hour collection time points.
Urine pools were prepared for Group 2 at 0 to 6 and 6 to 12 hours post-dose. […] Four metabolites present at <10% relative observed intensity in at least 1 sample were M7 (<5% relative observed intensity), M16 (<3% relative observed intensity), M19 (<6% relative observed intensity), and M25 (<5% relative observed intensity).
Feces pools were prepared for Group 2 at 0 to 12, 12 to 24, and 24 to 48 hours post-dose.

The conditions of series [3]: rat, in vivo, po, 75 mg/kg. Here is the method: Pancreas and liver concentrations ranged from 23,500 ng equiv./g to 28,100 ng equiv./g. Uveal tract and brain concentrations were lowest relative to the other tissues and were approximately 1000 ng equiv./g. Skin, thymus, prostate, and pituitary tissue concentrations were <3000 ng equiv./g. Remaining tissues had concentrations between 3600 ng-equiv./g and 10,700 ng equiv./g. […] As calculated using AUClast, the tissue:plasma ratios were highest for the small intestine (wall, 15.4) followed by the liver and adrenal gland at 6.96 and 6.64, respectively. High liver and small intestine concentrations are consistent with oral administration and biliary (fecal) excretion.

Take `C[C@H](CCCC(C)(C)O)[C@H]1CC[C@H]2[C@@H]3CC=C4C[C@@H](OS(=O)(=O)O)CC[C@]4(C)[C@H]3CC[C@]12C` [25HC3S, 25-hydroxycholesterol-3-sulfate]: the “hypomethylation levels across genomic functional regions versus vehicle” value in series [1] is on record as “significantly higher hypomethylation levels than vehicle”. In addition, the amount in feces in series [2] (pools 0 to 48 hours post-dose) is 2 % of dose. In series [2] (up to 1 hour post-dose), the “share of the exposure (AUC) to 25HC3S related radioactivity in plasma” value is on record as “approximately 54%”. Further, in series [3] (male, Sprague Dawley), the “tissue:plasma ratio, adrenal gland” value is listed as 6.64; the “tissue:plasma ratio, liver” value is 6.96; the “tissue:plasma ratio, small intestine (wall)” value came out at 15.4. Besides, in series [3], the “Cmax in small intestine (wall)” value is recorded as 424,000 ng equiv./g; the “Cmax in stomach (wall)” value was 204,000 ng equiv./g; the “tissue concentrations by 168 hours post-dose” value is “near or below the quantitation limit in all tissues except adrenal gland and liver”; the “tissue distribution of parent and/or metabolites” value is “broadly distributed and detected by quantitative whole body autoradiography in all tissues except the eye (lens)”. Besides, in series [3], the “whole blood AUClast” value was 127,000 h·ng equiv./g.
